Assay results reported in PubChem BioAssay (NCI).
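Protocol summary: plate cells (96-well), add compound at 5 concentrations, incubate 48 h, interpolate endpoints linearly. At the TGI there is no net growth.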

Key:
Assay in all cases: NCI anticancer screen, dose series, 48 h
NCI-H23 lung = system: NCI-H23 lung
SW-620 colon = system: SW-620 colon
OVCAR-4 ovarian = system: OVCAR-4 ovarian
EKVX NSCLC = system: EKVX NSCLC
SF-539 CNS = system: SF-539 CNS
HOP-62 NSCLC = system: HOP-62 NSCLC
OVCAR-3 ovarian = system: OVCAR-3 ovarian
HS 578T breast = system: HS 578T breast
IGROV1 ovarian = system: IGROV1 ovarian
TK-10 renal = system: TK-10 renal
NCI-H460 lung = system: NCI-H460 lung
SR leukemia = system: SR leukemia
HCT-116 colon = system: HCT-116 colon
SK-MEL-5 melanoma = system: SK-MEL-5 melanoma
RXF 393 renal = system: RXF 393 renal
HCC-2998 colon = system: HCC-2998 colon
786-0 renal = system: 786-0 renal
SK-MEL-2 melanoma = system: SK-MEL-2 melanoma
ACHN renal = system: ACHN renal
RPMI-8226 leukemia = system: RPMI-8226 leukemia
HT29 colon = system: HT29 colon
BT-549 breast = system: BT-549 breast
OVCAR-5 ovarian = system: OVCAR-5 ovarian
MALME-3M melanoma = system: MALME-3M melanoma
PC-3 prostate = system: PC-3 prostate
MOLT-4 leukemia = system: MOLT-4 leukemia
COLO 205 colon = system: COLO 205 colon
CAKI-1 renal = system: CAKI-1 renal
K-562 leukemia = system: K-562 leukemia
UO-31 renal = system: UO-31 renal
CCRF-CEM leukemia = system: CCRF-CEM leukemia
HL-60(TB) leukemia = system: HL-60(TB) leukemia
SK-OV-3 ovarian = system: SK-OV-3 ovarian
UACC-62 melanoma = system: UACC-62 melanoma
SF-295 CNS = system: SF-295 CNS
HCT-15 colon = system: HCT-15 colon
MCF7 breast = system: MCF7 breast
KM12 colon = system: KM12 colon
DU-145 prostate = system: DU-145 prostate
M14 melanoma = system: M14 melanoma
T-47D breast = system: T-47D breast
HOP-92 NSCLC = system: HOP-92 NSCLC
A549 NSCLC = system: A549 NSCLC
A498 renal = system: A498 renal
OVCAR-8 ovarian = system: OVCAR-8 ovarian
SK-MEL-28 melanoma = system: SK-MEL-28 melanoma
NCI/ADR-RES ovarian = system: NCI/ADR-RES ovarian
SNB-19 CNS = system: SNB-19 CNS
NCI-H522 lung = system: NCI-H522 lung
U251 CNS = system: U251 CNS
MDA-MB-435 = system: MDA-MB-435
UACC-257 melanoma = system: UACC-257 melanoma
SNB-75 CNS = system: SNB-75 CNS
LOX IMVI melanoma = system: LOX IMVI melanoma
NCI-H226 lung = system: NCI-H226 lung

COC(=O)[C@@H]1C=C[C@H](OC2OC(COC(C)=O)C(OC(C)=O)C(OC(C)=O)C2OC(C)=O)n2c(=O)c3ccccc3c(=O)n21 (stereo not given in full)
TGI (NCI-H23 lung): 39.9 µM | TGI (SW-620 colon): 24.9 µM | TGI (OVCAR-4 ovarian): 34.6 µM | TGI (EKVX NSCLC): 30.5 µM | TGI (SF-539 CNS): 33.7 µM | TGI (HOP-62 NSCLC): 36.3 µM | TGI (OVCAR-3 ovarian): 22.2 µM | TGI (HS 578T breast): 76.2 µM | TGI (IGROV1 ovarian): 33.3 µM | TGI (TK-10 renal): 18.3 µM | TGI (NCI-H460 lung): 29 µM | TGI (SR leukemia): > 100 µM | TGI (HCT-116 colon): 22.8 µM | TGI (SK-MEL-5 melanoma): 30.2 µM | TGI (RXF 393 renal): 20.1 µM | TGI (HCC-2998 colon): 29.6 µM | TGI (786-0 renal): 58.9 µM | TGI (SK-MEL-2 melanoma): 24.5 µM | TGI (ACHN renal): 24.1 µM | TGI (RPMI-8226 leukemia): 35.6 µM | TGI (HT29 colon): 60.9 µM | TGI (BT-549 breast): 18.2 µM | TGI (OVCAR-5 ovarian): 29.6 µM | TGI (MALME-3M melanoma): 39.6 µM | TGI (PC-3 prostate): 25.3 µM | TGI (MOLT-4 leukemia): 41.1 µM | TGI (COLO 205 colon): 22.4 µM | TGI (CAKI-1 renal): 13 µM | TGI (K-562 leukemia): 24.5 µM | TGI (UO-31 renal): 27.5 µM | TGI (CCRF-CEM leukemia): 24.9 µM | TGI (HL-60(TB) leukemia): 30.2 µM | TGI (SK-OV-3 ovarian): 28.2 µM | TGI (UACC-62 melanoma): 23 µM | TGI (SF-295 CNS): 53.9 µM | TGI (HCT-15 colon): 22.7 µM | TGI (MCF7 breast): 29.3 µM | TGI (KM12 colon): 27.4 µM | TGI (DU-145 prostate): 38.3 µM | TGI (M14 melanoma): 36.9 µM | TGI (T-47D breast): 20.9 µM | TGI (HOP-92 NSCLC): 23.7 µM | TGI (A549 NSCLC): 47.4 µM | TGI (A498 renal): 32.6 µM | TGI (OVCAR-8 ovarian): 49 µM | TGI (SK-MEL-28 melanoma): 27.8 µM | TGI (NCI/ADR-RES ovarian): 56.7 µM | TGI (SNB-19 CNS): 47.2 µM | TGI (NCI-H522 lung): 3.28 µM | TGI (U251 CNS): 25.1 µM | TGI (MDA-MB-435): 23 µM | TGI (UACC-257 melanoma): 51.2 µM | TGI (SNB-75 CNS): 20.6 µM | TGI (LOX IMVI melanoma): 29.5 µM | TGI (NCI-H226 lung): 46.3 µM
